Laboratory results: US11034654B2, “2,3-dihydroisoindole-1-carboxamides useful as ROR-gamma modulators” (AstraZeneca AB, priority 2017, dated 2021)

Experiments:
[1] = biological target: T1, RORγ ligand binding domain (Homo sapiens, UniProt P51449); assay: RORγ radioligand competition binding assay (SPA); conditions: competition with tritiated 2-(4-(ethylsulfonyl)phenyl)-N-(4-(2-(methoxymethyl)phenyl)thiophen-2-yl)acetamide (25 nM), hRORγ LBD
Excerpt: RORγ Radioligand Competition Binding Assay The aim of this assay is to identify compounds which bind to the RORγ ligand binding domain, by competing with tritiated 2-(4-(ethylsulfonyl)phenyl)-N-(4-(2-(methoxymethyl)phenyl)thiophen-2-yl)acetamide. Human RORγ (Ligand Binding Domain (RORγ LBD) was expressed in E. coli (BL21DE3 Star) as a fusion protein: N-6×HN-Avi-GST-TCS-hRORγ LBD (S258-K518) subcloned into pET24a(+). The LBD (258-518) is underlined in the protein sequence: The scintillation proximity assay (SPA) was run in white polystyrene flat-bottom 384-well plates (Greiner, cat. No. 781075). Assays were carried out in 40 μl reaction volumes. Various concentrations of test ligands in 0.4 microlitres of DMSO were added to assay plates using an acoustic liquid dispenser. 4 nM purified N-(HN)6-GST-TCS-hRORγ (258-518) was mixed with 40 micrograms Yttrium oxide (YOx) glutathione SPA imaging beads in assay buffer (20 mM Tris, 150 mM NaCl, 10% Glycerol, 0.25% CHAPS, 1 mM TCEP) prior to adding 30 microlitres to test ligands. Assay plates were incubated for one hour at room temperature before adding 10 microlitres tritiated 2-(4-(ethylsulfonyl)phenyl)-N-(4-(2-(methoxymethyl)phenyl)thiophen-2-yl)acetamide to test plates in assay buffer (final concentration, 25 nM). Test plates were incubated for 16 hours and read using a LEADseeker Multimodality imaging instrument. The raw data was analysed and IC50 and Ki values for the compounds were calculated using Genedata Screener software. Raw data was transformed to % effect using equation 1: Compound % effect=100*[(X−min)/(max−min)], where X represents the normalized value for the compound based on the Min (vehicle) and Max (reference compound) inhibition controls. The concentration of test ligand that inhibited radioligand binding by 50% (i.e., the IC50) was calculated by plotting the % effect versus test ligand concentration and fitting the data using the Genedata Screener Smart fit algorithm. Ki is calculated from the IC50 value using the equation Ki=IC50/1+[L]/Kd) where [L]=25 nmol/L and Kd=17 nmol/L

human TH17 cells = assay: Inhibition of IL-17 release from human TH17 cells; format: cell-based; conditions: 96 h; isolated human TH17 cells cultured 4 days, IL-17A in supernatant by HTRF; read-out: pIC50 IL-17 release (converted)
Excerpt: Inhibition of IL-17 Release from Human TH17 Cells
This test is designed to screen compounds for their inhibitory effect on the release of IL-17 from isolated and cultured human TH17 cells.
Peripheral blood mononuclear cells (PBMC) were isolated from heparin treated human whole blood from healthy donors by density gradient centrifugation. TH17 cells (CD4+CXCR3−CCR6+) were enriched using a human TH17 Cell Enrichment Kit (Stemcell Technologies) according to the manufacturer's protocol. The isolated TH17 cells were activated with aCD3aCD28 beads (MACS Miltenyi) and cultured in X-Vivo15 medium (Lonza) supplemented with L-glutamine, β-mercaptoethanol and a cytokine cocktail consisting of; IL-2, IL-23, IL-1β, IL-6, TGF-β. Cells were seeded at 8000 cells/well in a 384-plate (Corning, #3707) in the presence of compounds or DMSO and cultured for 4 days (37° C., 5% CO2). On day 4 supernatants were collected and IL-17A was measured using a Human IL-17 HTRF Assay kit (Cisbio Bioassays) according to the manufacturer's protocol. The IC50 values for the tested compounds was calculated using Genedata Screener® software (Genedata) using the following calculation method; Compound % effect=100*[(X−min)/(max−min)], where X represents the normalized value for the compound based on the Min (DMSO) and Max (compound 3-(1,3-benzodioxol-5-yl)-1-(3,5-dimethylpiperidin-1-yl)-3-(2-hydroxy-4,6-dimethoxyphenyl)propan-1-one at 10 μM, described in J. R. Hu et al. ACS Med. Chem. Lett. 2013, 4, 79-84) inhibition controls. Results

[2] = biological target: T1, RORγ ligand binding domain; assay: RORγ co-factor recruitment assay (FRET); format: biochemical; design: made in house; host or cells: E. coli BL21DE3 Star; conditions: inhibition of recruitment of SRC-1 peptide (NCOA1_677-700) to hRORγ LBD, HTRF read-out
Excerpt: RORγ Co-Factor Recruitment Assay A high throughput coactivator binding assay for the identification of inverse agonists of the recruitment of peptide SRC-1 (NCOA1_677-_700) to the RORγ ligand binding domain was established. The ligand binding domain (LBD) of human RORγ was expressed in E. coli (BL21DE3 Star) as a fusion protein: N-6×HN-MBP-Avi-TCS-hRORγLBD(P260-K518) subcloned into pET24a(+). The LBD (P260-K518) is underlined in the protein sequence: The assay was run in black 384 well plates (Greiner cat no: 784900). Various concentrations of test ligands in 0.1 microlitres DMSO were dispensed to assay plates using an Echo acoustic dispenser. Two pre-mixes were prepared and incubated for 1 h at room temp in the dark. Pre-mix 1 comprised 100 nM Protein (Biotinylated HN-Avi-MBP-TCS-hRORγ (258-518)) and 60 nM Streptavidin APC in assay buffer, 50 mM MOPS pH7.4, 50 mM KF, 0.003% (w/v) CHAPS, 10 mM DTT and 0.01% (w/v) BSA and pre-mix 2 comprised 160 nM biotinylated SRC-1 peptide (NCOA1-677-700) and 20 nM Europium-W8044 labelled Streptavidin in assay buffer. Five microlitres of pre-mix 2 was dispensed to assay plates containing 0.1 microlitres of test compound and was incubated for 15 min prior to adding five microlitres of pre-mix 1. Plates were incubated at rt for 1 hour in the dark, prior to reading in a Pherastar multi-mode plate reader using HTRF filter set (ex 320, em 612 and 665). The FRET signal at 665 nm was divided by the signal at 612 nm and multiplied by 10,000 to generate a signal ratio value for each well. The raw data was transformed to % effect using the equation: Compound % effect=100*[(X−min)/(max−min)], where X represents the normalized value for the compound based on the Min (vehicle) and Max (reference compound) inhibition control. The concentration of test ligand that inhibited the activity by 50% (i.e., the IC50) was calculated by plotting the % effect versus test ligand concentration and fitting the data using the Genedata Screener Smart fit algorithm.

CC(=O)N1Cc2cc(S(C)(=O)=O)ccc2C1C(=O)Nc1ccc(C(NCCCS(C)(=O)=O)(C(F)(F)F)C(F)(F)F)cc1 (stereo not drawn) [Example 22, 2-Acetyl-N-[4-(1,1,1,3,3,3-hexafluoro-2-{[3-(methylsulfonyl)propyl]amino}propan-2-yl)phenyl]-5-(methylsulfonyl)-2,3-dihydro-1H-isoindole-1-carboxamide]
IC50 [1]: 1000 nM | IC50 (human TH17 cells): 794 nM | IC50 [2]: 1000 nM

CC(=O)N1Cc2cc(S(C)(=O)=O)ccc2C1C(=O)Nc1ccc(C(N2CCOCC2)(C(F)(F)F)C(F)(F)F)cc1 (stereo not drawn) [Example 23, 2-Acetyl-N-{4-[1,1,1,3,3,3-hexafluoro-2-(morpholin-4-yl)propan-2-yl]phenyl}-5-(methylsulfonyl)-2,3-dihydro-1H-isoindole-1-carboxamide]
IC50 [1]: 20 nM | IC50 (human TH17 cells): 15.8 nM | IC50 [2]: 39.8 nM

CC(=O)N1Cc2cc(S(C)(=O)=O)ccc2C1C(=O)Nc1ccc(C(c2nnn(C)n2)(C(F)(F)F)C(F)(F)F)cc1 (stereo not drawn) [Example 30, 2-Acetyl-N-{4-[1,1,1,3,3,3-hexafluoro-2-(2-methyl-2H-tetrazol-5-yl)propan-2-yl]phenyl}-5-(methylsulfonyl)-2,3-dihydro-1H-isoindole-1-carboxamide]
IC50 [1]: 39.8 nM | IC50 (human TH17 cells): 25.1 nM | IC50 [2]: 126 nM

COC(=O)CC(c1ccc(NC(=O)C2NCc3cc(S(C)(=O)=O)ccc32)cc1)(C(F)(F)F)C(F)(F)F (stereo not drawn) [Example 31, Methyl 4,4,4-trifluoro-3-[4-[(5-methylsulfonylisoindoline-1-carbonyl)amino]phenyl]-3-(trifluoromethyl)butanoate]
IC50 [1]: 794 nM | IC50 (human TH17 cells): 200 nM | IC50 [2]: 200 nM

COC(=O)CC(c1ccc(NC(=O)C2c3ccc(S(C)(=O)=O)cc3CN2C(C)=O)cc1)(C(F)(F)F)C(F)(F)F (stereo not drawn) [Example 32, Methyl 3-[4-({[2-acetyl-5-(methylsulfonyl)-2,3-dihydro-1H-isoindol-1-yl]carbonyl}amino)phenyl]-4,4,4-trifluoro-3-(trifluoromethyl)butanoate]
IC50 [1]: 25.1 nM | IC50 (human TH17 cells): 15.8 nM | IC50 [2]: 50.1 nM

CC(=O)N1Cc2cc(S(C)(=O)=O)ccc2C1C(=O)Nc1ccc(C(CCO)(C(F)(F)F)C(F)(F)F)cc1 (stereo not drawn) [Example 33, 2-Acetyl-5-(methylsulfonyl)-N-{4-[1,1,1-trifluoro-4-hydroxy-2-(trifluoromethyl)butan-2-yl]phenyl}-2,3-dihydro-1H-isoindole-1-carboxamide]
IC50 [1]: 251 nM | IC50 (human TH17 cells): 200 nM | IC50 [2]: 158 nM

CC(=O)N1Cc2cc(S(C)(=O)=O)ccc2C1C(=O)Nc1ccc(C(Cc2nc(C)no2)(C(F)(F)F)C(F)(F)F)cc1 (stereo not drawn) [Example 34, 2-Acetyl-N-(4-{1,1,1,3,3,3-hexafluoro-2-[(3-methyl-1,2,4-oxadiazol-5-yl)methyl]propan-2-yl}phenyl)-5-(methylsulfonyl)-2,3-dihydro-1H-isoindole-1-carboxamide]
IC50 [1]: 20 nM | IC50 (human TH17 cells): 20 nM | IC50 [2]: 126 nM

CC(=O)N1Cc2cc(S(C)(=O)=O)ccc2C1C(=O)Nc1ccc(C(CCF)(C(F)(F)F)C(F)(F)F)cc1 (stereo not drawn) [Example 35, 2-Acetyl-5-(methylsulfonyl)-N-{4-[1,1,1,4-tetrafluoro-2-(trifluoromethyl)butan-2-yl]phenyl}-2,3-dihydro-1H-isoindole-1-carboxamide]
IC50 [1]: 10 nM | IC50 (human TH17 cells): 6.31 nM | IC50 [2]: 39.8 nM

CC(=O)N1Cc2cc(S(C)(=O)=O)ccc2C1C(=O)Nc1ccc(C(CC#N)(C(F)(F)F)C(F)(F)F)cc1 (stereo not drawn) [Example 36, 2-Acetyl-N-{4-[2-(cyanomethyl)-1,1,1,3,3,3-hexafluoropropan-2-yl]phenyl}-5-(methylsulfonyl)-2,3-dihydro-1H-isoindole-1-carboxamide]
IC50 [1]: 158 nM | IC50 (human TH17 cells): 63.1 nM | IC50 [2]: 100 nM

CCOC(=O)CC(c1ccc(NC(=O)C2c3ccc(S(C)(=O)=O)cc3CN2C(C)=O)cc1)(C(F)(F)F)C(F)(F)F (stereo not drawn) [Example 37, Ethyl 3-[4-({[2-acetyl-5-(methylsulfonyl)-2,3-dihydro-1H-isoindol-1-yl]carbonyl}amino)phenyl]-4,4,4-trifluoro-3-(trifluoromethyl)butanoate]
IC50 [1]: 15.8 nM | IC50 (human TH17 cells): 25.1 nM | IC50 [2]: 100 nM

CC(=O)N1Cc2cc(S(C)(=O)=O)ccc2C1C(=O)Nc1ccc(C(CC(=O)NC2CC2)(C(F)(F)F)C(F)(F)F)cc1 (stereo not drawn) [Example 38, 2-Acetyl-N-{4-[4-(cyclopropylamino)-1,1,1-trifluoro-4-oxo-2-(trifluoromethyl)butan-2-yl]phenyl}-5-(methylsulfonyl)-2,3-dihydro-1H-isoindole-1-carboxamide]
IC50 [1]: 794 nM | IC50 (human TH17 cells): 1000 nM | IC50 [2]: 631 nM

CC(=O)N1Cc2cc(S(C)(=O)=O)ccc2C1C(=O)Nc1ccc(C(CC(=O)NCCF)(C(F)(F)F)C(F)(F)F)cc1 (stereo not drawn) [Example 41, 2-Acetyl-5-(methylsulfonyl)-N-(4-{1,1,1-trifluoro-4-[(2-fluoroethyl)amino]-4-oxo-2-(trifluoromethyl)butan-2-yl}phenyl)-2,3-dihydro-1H-isoindole-1-carboxamide]
IC50 [1]: 794 nM | IC50 (human TH17 cells): > 3160 nM | IC50 [2]: 316 nM

CC(=O)N1Cc2cc(S(C)(=O)=O)ccc2C1C(=O)Nc1ccc(C(CC(=O)N(C)C)(C(F)(F)F)C(F)(F)F)cc1 (stereo not drawn) [Example 42, 2-Acetyl-N-{4-[4-(dimethylamino)-1,1,1-trifluoro-4-oxo-2-(trifluoromethyl)butan-2-yl]phenyl}-5-(methylsulfonyl)-2,3-dihydro-1H-isoindole-1-carboxamide]
IC50 [1]: 794 nM | IC50 (human TH17 cells): 794 nM | IC50 [2]: 316 nM
